According to patent publication US10328052B2, “D-proline derivatives as SAP depleting agent” (GlaxoSmithKline Intellectual Property Development Limited, priority 2015, dated 2019):
Read-outs that look alike come from different tables or passages of the source. One block for each compound: values may come before it.

Tests used:
circulating SAP = molecular target: T1, circulating SAP (Homo sapiens, UniProt P02743); details: systemic amyloidosis patients, for as long as the drug was administered; cited from earlier work
T1 construct: host or cells: patients' plasma (in vivo)

[1] = very low and variable; cited from earlier work
SAP = molecular target: T2, SAP (Homo sapiens, UniProt P02743); details: cited from earlier work
T2 construct: reduces the CSF SAP concentration from 2-30 μg/L to <0.1 μg/L in patients with Alzheimer's disease; host or cells: patients' plasma and cerebrospinal fluid (in vivo)

CYP3A4 = molecular target: T3, CYP3A4 (Homo sapiens, UniProt P08684); test: Cytochrome p450 inhibition, bactosomes, fluorogenic substrates 7BQ and DEF; type: in vitro ADME; details: for IC50: bactosomes
T3 construct: purchased Cypex; host or cells: bactosomes (bacterial membranes)
Method: The assay was designed to evaluate inhibition on cytochrome P450 (CYP) 3A4, 2C9, 2C19, 1A2 and 2D6 enzymes from bactosomes source using fluorogenic substrates. Compound (compound of Formula (I) or Comparator Compound) was dissolved in methanol at 1.65 mM. Daughter solutions were prepared in methanol at 660, 264, 106, 42, 17, 6.8, 2.7, 1.1 and 0.43 μM. NADPH cofactor was prepared with Glucose-6-phosphate (7.8 mg), Glucose-6-phosphate dehydrogenase (6 units), NADP (1.7 mg) per 1 mL in NaHCO3 2%. Substrate Preparation was as Follows: • 7-Methoxy-4-triFluoromethyl Coumarin-3-Acetic acid ethyl ester (FCA): 12.5 mM in acetonitrile • EthoxyResorufin (ER): 0.05 mM in acetonitrile • 4-MethylaminoMethyl-7-Methoxy Coumarin (MMC): 2.5 mM in methanol • 3-Butyryl-7Methoxy Coumarin (BMC): 2.5 mM in DMSO • 7-BenzyloxyQuinoline (7BQ): 2.5 mM in acetonitrile • DiEthoxyFluorescein (DEF): 0.1 mM in acetonitrile Bactosomes (Cypex source) at the concentration of 10 mg of protein per mL were diluted in phosphate buffer 50 mM pH7.4: • 0.33 mL of bactosomes CYP2C9 with 23.8 mL of buffer and 0.11 mL of FCA • 0.33 mL of bactosomes CYP1A2 with 23.6 mL of buffer and 0.275 mL of ER • 0.33 mL of bactosomes CYP2D6 with 23.8 mL of buffer and 0.11 mL of MMC • 0.33 mL of bactosomes CYP2C19 with 23.8 mL of buffer and 0.11 mL of BMC • 0.33 mL of bactosomes CYP3[…] with 23.6 mL of buffer and 0.275 mL of 7BQ • 0.33 mL of bactosomes CYP3[…] with 23.6 mL of buffer and 0.275 mL of DEF Pre-Incubation consisted in mixing 5 μL of compound solution with 220 μL diluted bactosomes and warming it at 37° C. for 10 min. Incubation was started with the addition of 25 μL of NADPH. Then fluorescence of substrate metabolite was read in a SAFIRE instrument (from Tecan) for 5 min: • FCA (2C9): Excitation at 410 nm and Emission at 510 nm • ER (1A2): Excitation at 530 nm and Emission at 590 nm • MMC (2D6): Excitation at 410 nm and Emission at 485 nm • BMC (2C19): Excitation at 410 nm and Emission at 465 nm • 7BQ (3A4H): Excitation at 410 nm and Emission at 530 nm • DEF (3A4L): Excitation at 485 nm and Emission at 530 nm Plotting of inhibition of substrate production against compound concentration allowed the determination of IC50 values.

CYP2D6 = molecular target: T4, CYP2D6 (Homo sapiens, UniProt P10635); test: Cytochrome p450 inhibition, bactosomes, fluorogenic substrate MMC; type: in vitro ADME
T4 construct: purchased Cypex; host or cells: bactosomes (bacterial membranes)
Method: (§1) The assay was designed to evaluate inhibition on cytochrome P450 (CYP) 3A4, 2C9, 2C19, 1A2 and 2D6 enzymes from bactosomes source using fluorogenic substrates. Compound (compound of Formula (I) or Comparator Compound) was dissolved in methanol at 1.65 mM. Daughter solutions were prepared in methanol at 660, 264, 106, 42, 17, 6.8, 2.7, 1.1 and 0.43 μM. NADPH cofactor was prepared with Glucose-6-phosphate (7.8 mg), Glucose-6-phosphate dehydrogenase (6 units), NADP (1.7 mg) per 1 mL in NaHCO3 2%. […]

CYP1A2 = molecular target: T5, CYP1A2 (Homo sapiens, UniProt P05177); test: Cytochrome p450 inhibition, bactosomes, fluorogenic substrate ER; type: in vitro ADME
T5 construct: purchased Cypex; host or cells: bactosomes (bacterial membranes)
T5 sequence (P05177 1-516): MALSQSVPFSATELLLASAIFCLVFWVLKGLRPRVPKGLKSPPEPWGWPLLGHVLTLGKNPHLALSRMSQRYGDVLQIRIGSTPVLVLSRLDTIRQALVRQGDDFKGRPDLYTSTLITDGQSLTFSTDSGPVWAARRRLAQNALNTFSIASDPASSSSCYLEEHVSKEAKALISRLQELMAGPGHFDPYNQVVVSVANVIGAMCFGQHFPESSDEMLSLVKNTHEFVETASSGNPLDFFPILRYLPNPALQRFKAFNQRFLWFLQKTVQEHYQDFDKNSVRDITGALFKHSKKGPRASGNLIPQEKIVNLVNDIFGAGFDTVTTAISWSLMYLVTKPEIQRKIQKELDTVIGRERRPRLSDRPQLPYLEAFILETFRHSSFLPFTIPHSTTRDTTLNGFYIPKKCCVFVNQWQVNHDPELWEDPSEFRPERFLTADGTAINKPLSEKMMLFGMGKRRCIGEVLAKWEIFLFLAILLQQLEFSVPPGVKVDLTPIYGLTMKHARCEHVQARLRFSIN
Method: as §1

[2] = Physical stability (hydrolysis) in phosphate buffer at various pHs; type: physicochemical
Method: The assay was designed for determining physical stability of compound in buffer at various pHs. Compound of Formula (I) was dissolved in DMSO at 1 mg/mL. Phosphate buffer (PBS) was prepared by mixing K2HPO4 50 mM and KH2PO4 50 mM solutions to obtain 4 buffers at pH 6.0, 7.0, 7.5, 8.0.
Stability studies were conducted at room temperature, and were started by the addition of 8 μL of DMSO solution to 792 μL of PBS 50 mM at pH 6.0, 7.0, 7.5 or 8.0 (1% DMSO). 75 μl of mixture was taken at 0, 1, 2, 4 and 24 h and 225 μL acetonitrile containing internal standard was added.
2 μL of samples were injected into the liquid chromatography system and eluted with a Ascentis C18 column (50×2.1 mm id, 2.7 μm) and with 0.1% formic acid in water (A) and 0.1% formic acid in acetonitrile (B), using the following elution 2 min gradient: 5 to 95% B over 1.2 min, 95% B over 0.6 min and 0.1 min for re-equilibrate column, at 0.5 mL/min at 50° C.
Samples were analysed by Mass Spectrometry with an electrospray source and in positive mode and with following mass transitions: • Compound of Formula (I): 625 to 368 • Monoester of CPHPC: 483 to 226 • CPHPC: 341 to 226

[3] = Intestinal microsomal stability; type: in vitro ADME; details: up to 30 minutes, 37° C.
Method: The assay was designed for determining stability of compound in microsomal matrix. Compound (Compound of Formula (I)) was dissolved in DMSO at 1 mg/mL. Daughter solution was prepared in methanol/water (50/50) at 30.3 ng/mL. Microsomes (from Xenotech) were diluted at 0.625 mg proteins per mL in phosphate buffer 50 mM pH 7.4.
Pre-Incubation consisted of warming microsomal solution 395 μL with 100 μL NaHCO3 (2%) at 37° C. for 7 min. Incubation was started with the addition of 5 μL of daughter solution. 50 μL aliquots of mixture were taken at 0, 3, 6, 12 and 30 min and quenched with 150 μL acetonitrile containing internal standard.
After 10 min centrifugation at 4000 rpm, 2 μL of samples were injected into the liquid chromatography system and eluted on a Ascentis C18 column (50×2.1 mm id, 2.7 μm) with 0.1% formic acid in water (A) and 0.1% formic acid in acetonitrile (B), using the following 2 minute elution gradient: 5 to 95% B over 1.2 min, 95% B over 0.6 min and 0.1 min for re-equilibrate column, at 0.5 mL/min at 50° C.
Samples were analysed by Mass Spectrometry with an electrospray source, in positive mode and with following mass transitions: • Compound of Formula (I): 625 to 368 • Monoester of CPHPC: 483 to 226 • CPHPC: 341 to 226
Controls were made to calculate percentage of disappearance of parent but also appearance of suspected metabolite, i.e. monoester and diacidic form.

[4] = Solubility in aqueous media; type: physicochemical; details: thermodynamic from solid, 4 hour timepoint, read-out: Solubility (mg/mL) at 4 hour timepoint
Method: A known quantity of the compound of Formula (I) was weighed into a suitable vessel (e.g. a screw capped clear glass vial) and a known volume of the required media added (e.g. Simulated Gastric Fluid pH 1.6 [SGF], Simulated Fed State Intestinal Fluid pH 6.5 [FeSSIF], Simulated Fasted State Intestinal Fluid pH 6.5 [FaSSIF], Water [Purified Water], or Britton-Robinson buffer). The compound was wetted with the media by vortex mixing for 30 seconds to 1 minute. The sample was then visually observed to ensure that undissolved solid remained present. The sample was transferred to a gentle mixer (such as a roller mixer) and allowed to agitate until the desired time point was reached. At appropriate times the sample was reassessed visually. If all the solid had dissolved the solubility was recorded as >x mg/mL where x is the known weight used divided by the volume added. If undissolved solid remained a portion of the sample was taken and centrifuged to remove the solid leaving a clear supernatant. The supernatant was diluted volumetrically with a suitable diluent to provide an analytical sample of suitable concentration for analysis. This diluted sample was then analysed by a suitable method such as HPLC against a standard(s) of known concentration. The solubility of the compound can then be calculated using a knowledge of the concentration of the standard, the relative response (e.g. peak areas) of the standard and the analytical sample described, and the dilution of the analytical sample.

CYP2C9 = molecular target: T6, CYP2C9 (Homo sapiens, UniProt P11712); test: Cytochrome p450 inhibition, bactosomes, fluorogenic substrate FCA; type: in vitro ADME
T6 construct: purchased Cypex; host or cells: bactosomes (bacterial membranes)
Method: as §1

CYP2C19 = molecular target: T7, CYP2C19 (Homo sapiens, UniProt P33261); test: Cytochrome p450 inhibition, bactosomes, fluorogenic substrate BMC; type: in vitro ADME
T7 construct: purchased Cypex; host or cells: bactosomes (bacterial membranes)
Method: as §1

[5] = substrate DEF, read-out: IC50 CYP3A4 (DEF)

T3 sequence (P08684 whole entry): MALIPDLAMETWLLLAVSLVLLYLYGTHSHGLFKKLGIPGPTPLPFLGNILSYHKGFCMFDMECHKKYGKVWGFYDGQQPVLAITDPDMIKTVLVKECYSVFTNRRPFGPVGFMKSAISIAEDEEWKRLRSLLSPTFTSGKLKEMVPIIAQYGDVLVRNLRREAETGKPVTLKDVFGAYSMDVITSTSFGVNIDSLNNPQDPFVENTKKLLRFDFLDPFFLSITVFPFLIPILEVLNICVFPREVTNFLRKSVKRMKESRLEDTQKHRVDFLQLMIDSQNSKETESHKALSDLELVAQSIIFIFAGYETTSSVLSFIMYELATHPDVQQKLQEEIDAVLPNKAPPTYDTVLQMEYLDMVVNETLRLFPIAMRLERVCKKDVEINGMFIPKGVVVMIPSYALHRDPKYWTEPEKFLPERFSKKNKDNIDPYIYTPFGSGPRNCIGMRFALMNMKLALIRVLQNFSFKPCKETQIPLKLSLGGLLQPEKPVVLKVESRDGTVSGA
T4 sequence (P10635 whole entry): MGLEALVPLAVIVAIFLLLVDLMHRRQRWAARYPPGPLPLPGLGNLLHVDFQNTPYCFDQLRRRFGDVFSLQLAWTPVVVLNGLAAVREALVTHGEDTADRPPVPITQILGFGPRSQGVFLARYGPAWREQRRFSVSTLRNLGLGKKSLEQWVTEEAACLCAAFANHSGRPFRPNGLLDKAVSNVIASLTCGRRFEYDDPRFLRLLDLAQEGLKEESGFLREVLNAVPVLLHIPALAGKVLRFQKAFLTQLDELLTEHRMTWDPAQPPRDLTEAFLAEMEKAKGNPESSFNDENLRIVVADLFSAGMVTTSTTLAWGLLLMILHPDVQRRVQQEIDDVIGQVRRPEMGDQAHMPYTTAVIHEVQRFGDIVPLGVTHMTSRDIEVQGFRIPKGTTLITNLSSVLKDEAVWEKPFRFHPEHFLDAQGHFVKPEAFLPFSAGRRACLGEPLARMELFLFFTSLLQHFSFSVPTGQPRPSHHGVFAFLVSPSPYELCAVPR
T7 sequence (P33261 whole entry): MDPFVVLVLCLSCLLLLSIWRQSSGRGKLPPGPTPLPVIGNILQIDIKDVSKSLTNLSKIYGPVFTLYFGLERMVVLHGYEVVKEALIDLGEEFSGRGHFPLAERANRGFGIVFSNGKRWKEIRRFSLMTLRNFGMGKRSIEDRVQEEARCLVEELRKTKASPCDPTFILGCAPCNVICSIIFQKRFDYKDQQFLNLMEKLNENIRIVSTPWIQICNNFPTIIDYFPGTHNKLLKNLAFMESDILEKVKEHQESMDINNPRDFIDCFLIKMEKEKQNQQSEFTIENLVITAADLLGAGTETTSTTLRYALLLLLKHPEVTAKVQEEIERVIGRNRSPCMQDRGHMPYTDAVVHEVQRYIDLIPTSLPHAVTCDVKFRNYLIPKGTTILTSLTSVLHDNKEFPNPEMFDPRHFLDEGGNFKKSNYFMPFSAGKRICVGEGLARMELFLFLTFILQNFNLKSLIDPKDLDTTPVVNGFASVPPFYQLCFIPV
T2 sequence (P02743 20-223): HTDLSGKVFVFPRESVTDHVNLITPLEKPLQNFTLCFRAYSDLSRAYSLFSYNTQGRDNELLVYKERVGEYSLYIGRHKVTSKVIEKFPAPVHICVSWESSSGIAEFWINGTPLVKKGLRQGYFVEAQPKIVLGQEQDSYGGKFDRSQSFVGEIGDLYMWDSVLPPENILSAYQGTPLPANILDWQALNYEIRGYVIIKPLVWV
T6 sequence (P11712 whole entry): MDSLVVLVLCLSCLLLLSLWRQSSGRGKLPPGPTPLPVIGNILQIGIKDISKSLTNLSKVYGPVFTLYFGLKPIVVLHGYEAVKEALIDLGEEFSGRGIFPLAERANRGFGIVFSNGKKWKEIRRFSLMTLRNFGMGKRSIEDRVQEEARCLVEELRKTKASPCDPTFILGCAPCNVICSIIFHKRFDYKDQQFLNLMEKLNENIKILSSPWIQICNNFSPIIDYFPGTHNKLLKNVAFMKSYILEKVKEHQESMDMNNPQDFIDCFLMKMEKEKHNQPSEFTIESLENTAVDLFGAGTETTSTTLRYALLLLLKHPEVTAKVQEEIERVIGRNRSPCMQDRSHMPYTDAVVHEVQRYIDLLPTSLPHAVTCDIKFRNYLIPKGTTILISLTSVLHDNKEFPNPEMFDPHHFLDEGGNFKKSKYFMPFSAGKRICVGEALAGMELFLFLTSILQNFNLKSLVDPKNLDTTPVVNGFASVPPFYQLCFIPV
T1 sequence (P02743 20-223): as the sequence (P02743 20-223) above

SMILES: O=C(O)[C@H]1CCCN1C(=O)CCCCC(=O)N1CCC[C@@H]1C(=O)O [CPHPC, (R)-1-[6-[(R)-2-carboxy-pyrrolidin-1-yl]-6-oxo-hexanoyl]pyrrolidine-2-carboxylic acid]
depletion of circulating SAP (in words) (circulating SAP): almost complete depletion
oral bioavailability [1]: 3-5%
CSF SAP concentration after depletion by CPHPC (SAP; CSF, patients with Alzheimer's disease, from 2-30 μg/L): < 0.1 µg/L
plasma SAP after depletion by CPHPC (SAP; plasma, from the normal 20-50 mg/L): < 0.1 mg/L

inhibition of CYP3A4-7BQ (in words) (CYP3A4; substrate 7BQ): significant inhibition
inhibition of CYP3A4-DEF (in words) (CYP3A4; substrate DEF): significant inhibition
SMILES: CC(OC(=O)[C@H]1CCCN1C(=O)CCCCC(=O)N1CCC[C@@H]1C(=O)OC(C)OC(=O)C(C)(C)C)OC(=O)C(C)(C)C (stereo partly drawn) [Comparator Compound, (2R,2′R)-bis(1-(pivaloyloxy)ethyl) 1,1′-adipoylbis(pyrrolidine-2-carboxylate), reference compound]

IC50 (CYP2D6): > 33 µM
IC50 (CYP3A4; substrate 7BQ, read-out: IC50 CYP3A4 (7BQ)): > 33 µM
IC50 (CYP3A4; [5]): > 33 µM
IC50 (CYP1A2): > 33 µM
compound hydrolysed after 24 h ([2]; acidic environment (pH less than 7.0), PBS, room temperature, 24 h): Less than 20%
rate of hydrolysis in human intestinal microsomes (in words) [3]: low rate of hydrolysis
solubility at 4 h ([4]; FaSSIF (Simulated Fasted State Intestinal Fluid pH 6.5)): 1.04 mg/mL
solubility at 4 h ([4]; FeSSIF (Simulated Fed State Intestinal Fluid pH 6.5)): 0.599 mg/mL
solubility at 4 h ([4]; SGF (Simulated Gastric Fluid pH 1.6)): 0.577 mg/mL
solubility at 4 h ([4]; water (purified water), Water): 0.574 mg/mL
IC50 (CYP2C9): > 33 µM
IC50 (CYP2C19): > 33 µM
SMILES: O=C(OCOC(=O)[C@H]1CCCN1C(=O)CCCCC(=O)N1CCC[C@@H]1C(=O)OCOC(=O)C1CCOCC1)C1CCOCC1 [Compound of Formula (I), (2R,2′R)-bis(((tetrahydro-2H-pyran-4-carbonyl)oxy)methyl) 1,1′-adipoylbis(pyrrolidine-2-carboxylate)]
sensitivity to hydrolysis at different pH (in words) ([2]; PBS pH6 to pH8, room temperature): less sensitive to hydrolysis for a pH below 7.5

IC50 (CYP2D6): > 33 µM
IC50 (CYP3A4; [5]): > 33 µM
IC50 (CYP1A2): > 33 µM
IC50 (CYP2C9): > 33 µM
IC50 (CYP2C19): > 33 µM
SMILES: O=C(OCOC(=O)[C@H]1CCCN1C(=O)CCCCC(=O)N1CCC[C@@H]1C(=O)O)C1CCOCC1 [mono-ester derivative, (R)-1-(6-oxo-6-((R)-2-((((tetrahydro-2H-pyran-4-carbonyl)oxy)methoxy)carbonyl)pyrrolidin-1-yl)hexanoyl)pyrrolidine-2-carboxylic acid]
